Measurements: publication PMC11672637, “7-O-Carboxylic Acid-Substituted 3-O-Alkyl Difluoroquercetin; An Aztreonam-Potentiating Agent Against Carbapenemase-Producing Pseudomonas aeruginosa Through Simultaneous Inhibition of Metallo-β-Lactamase and Efflux Pump” (Antibiotics, 2024)
Where two headings read alike, the source gives them in different places.

Key:
Test in all cases: MIC / checkerboard with ATM
Type in all cases: cell-based, P. aeruginosa
PA-003, blaVIM = details: PA-003
PA-002, blaIMP = details: for MIC: Pseudomonas aeruginosa, read-out: MIC of ATM with 5, PA-002
PA-016, blaIMP = details: for MIC: Pseudomonas aeruginosa, read-out: MIC of ATM with 5, PA-016
PA-027, blaIMP = details: for MIC: Pseudomonas aeruginosa, read-out: MIC of ATM with 5, PA-027
PA-029, blaIMP = details: for MIC: Pseudomonas aeruginosa, read-out: MIC of ATM with 5, PA-029
PA-030, blaIMP = details: for MIC: Pseudomonas aeruginosa, read-out: MIC of ATM with 5, PA-030
PA-028, blaNDM = details: for MIC: Pseudomonas aeruginosa, read-out: MIC of ATM with 5, PA-028
PA-038, blaNDM = details: PA-038

## CC(C)(C)CCOc1c(-c2ccc(F)c(F)c2)oc2cc(OCC(=O)O)cc(O)c2c1=O [Compound 5, 2-((2-(3,4-Difluorophenyl)-3-(3,3-dimethylbutoxy)-5-hydroxy-4-oxo-4H-chromen-7-yl)oxy)acetic Acid]
PA-003, blaVIM
  Activity (FICI class): I (I (indifference, 0.5 < FICI ≤ 4))
  Concentrations of ATM and 5 at lowest FICI (ATM/5): 16/1
  Minimum concentration of 5 to make sensitive to ATM: 1 mg/L
PA-003, blaVIM; 5 at 2 mg/L
  MIC of ATM with 5: 16 µg/mL
PA-003, blaVIM; 5 at 4 mg/L
  MIC of ATM with 5: 16 µg/mL
PA-003, blaVIM; 5 at 8 mg/L
  MIC of ATM with 5: 16 µg/mL
PA-003, blaVIM; 5 at 16 mg/L
  MIC of ATM with 5: 16 µg/mL
PA-003, blaVIM; 5 at 32 mg/L
  MIC of ATM with 5: 16 µg/mL
PA-003, blaVIM; 5 at 64 mg/L
  MIC of ATM with 5: 16 µg/mL
PA-003, blaVIM; ATM/5
  Susceptibility to ATM: I (I (intermediate, MIC = 16 mg/L))
PA-003, blaVIM; lowest-FICI combination
  FD (fold decrease in MIC of ATM with 5): 2
PA-003, blaVIM; Pseudomonas aeruginosa, read-out: MIC of ATM with 5, 5 at 1 mg/L
  MIC: 16 µg/mL
PA-002, blaIMP; PA-002
  Activity (FICI class): S (S (Synergy, FICI ≤ 0.5))
  Concentrations of ATM and 5 at lowest FICI (ATM/5): 8/4
  Lowest FICI (ATM/5): 0.26
  Minimum concentration of 5 to make sensitive to ATM: 4 mg/L
PA-002, blaIMP; PA-002, ATM/5
  Susceptibility to ATM: S (S (sensitive, MIC ≤ 8 mg/L))
PA-002, blaIMP; PA-002, lowest-FICI combination
  FD (fold decrease in MIC of ATM with 5): 4
PA-002, blaIMP; 5 at 1 mg/L
  MIC: 16 µg/mL
PA-002, blaIMP; 5 at 2 mg/L
  MIC: 16 µg/mL
PA-002, blaIMP; 5 at 4 mg/L
  MIC: 8 µg/mL
PA-002, blaIMP; 5 at 8 mg/L
  MIC: 8 µg/mL
PA-002, blaIMP; 5 at 16 mg/L
  MIC: 4 µg/mL
PA-002, blaIMP; 5 at 32 mg/L
  MIC: 4 µg/mL
PA-002, blaIMP; 5 at 64 mg/L
  MIC: 2 µg/mL
PA-016, blaIMP; PA-016
  Activity (FICI class): S (S (Synergy, FICI ≤ 0.5))
  Concentrations of ATM and 5 at lowest FICI (ATM/5): 8/8
  Lowest FICI (ATM/5): 0.27
  Minimum concentration of 5 to make sensitive to ATM: 8 mg/L
PA-016, blaIMP; PA-016, ATM/5
  Susceptibility to ATM: S (S (sensitive, MIC ≤ 8 mg/L))
PA-016, blaIMP; PA-016, lowest-FICI combination
  FD (fold decrease in MIC of ATM with 5): 4
PA-016, blaIMP; 5 at 1 mg/L
  MIC: 32 µg/mL
PA-016, blaIMP; 5 at 2 mg/L
  MIC: 16 µg/mL
PA-016, blaIMP; 5 at 4 mg/L
  MIC: 16 µg/mL
PA-016, blaIMP; 5 at 8 mg/L
  MIC: 8 µg/mL
PA-016, blaIMP; 5 at 16 mg/L
  MIC: 8 µg/mL
PA-016, blaIMP; 5 at 32 mg/L
  MIC: 4 µg/mL
PA-016, blaIMP; 5 at 64 mg/L
  MIC: 4 µg/mL
PA-027, blaIMP; PA-027
  Activity (FICI class): S (S (Synergy, FICI ≤ 0.5))
  Concentrations of ATM and 5 at lowest FICI (ATM/5): 8/4
  Lowest FICI (ATM/5): 0.26
  Minimum concentration of 5 to make sensitive to ATM: 4 mg/L
PA-027, blaIMP; PA-027, ATM/5
  Susceptibility to ATM: S (S (sensitive, MIC ≤ 8 mg/L))
PA-027, blaIMP; PA-027, lowest-FICI combination
  FD (fold decrease in MIC of ATM with 5): 4
PA-027, blaIMP; 5 at 1 mg/L
  MIC: 32 µg/mL
PA-027, blaIMP; 5 at 2 mg/L
  MIC: 16 µg/mL
PA-027, blaIMP; 5 at 4 mg/L
  MIC: 8 µg/mL
PA-027, blaIMP; 5 at 8 mg/L
  MIC: 4 µg/mL
PA-027, blaIMP; 5 at 16 mg/L
  MIC: 2 µg/mL
PA-027, blaIMP; 5 at 32 mg/L
  MIC: 2 µg/mL
PA-027, blaIMP; 5 at 64 mg/L
  MIC: 2 µg/mL
PA-029, blaIMP; PA-029
  Activity (FICI class): S (S (Synergy, FICI ≤ 0.5))
  Concentrations of ATM and 5 at lowest FICI (ATM/5): 8/16
  Lowest FICI (ATM/5): 0.28
  Minimum concentration of 5 to make sensitive to ATM: 16 mg/L
PA-029, blaIMP; PA-029, ATM/5
  Susceptibility to ATM: S (S (sensitive, MIC ≤ 8 mg/L))
PA-029, blaIMP; PA-029, lowest-FICI combination
  FD (fold decrease in MIC of ATM with 5): 4
PA-029, blaIMP; 5 at 1 mg/L
  MIC: 32 µg/mL
PA-029, blaIMP; 5 at 2 mg/L
  MIC: 32 µg/mL
PA-029, blaIMP; 5 at 4 mg/L
  MIC: 16 µg/mL
PA-029, blaIMP; 5 at 8 mg/L
  MIC: 16 µg/mL
PA-029, blaIMP; 5 at 16 mg/L
  MIC: 8 µg/mL
PA-029, blaIMP; 5 at 32 mg/L
  MIC: 8 µg/mL
PA-029, blaIMP; 5 at 64 mg/L
  MIC: 8 µg/mL
PA-030, blaIMP; PA-030
  Activity (FICI class): S (S (Synergy, FICI ≤ 0.5))
  Concentrations of ATM and 5 at lowest FICI (ATM/5): 16/4
  Lowest FICI (ATM/5): 0.26
  Minimum concentration of 5 to make sensitive to ATM: 16 mg/L
PA-030, blaIMP; PA-030, ATM/5
  Susceptibility to ATM: S (S (sensitive, MIC ≤ 8 mg/L))
PA-030, blaIMP; PA-030, lowest-FICI combination
  FD (fold decrease in MIC of ATM with 5): 4
PA-030, blaIMP; 5 at 1 mg/L
  MIC: 32 µg/mL
PA-030, blaIMP; 5 at 2 mg/L
  MIC: 32 µg/mL
PA-030, blaIMP; 5 at 4 mg/L
  MIC: 16 µg/mL
PA-030, blaIMP; 5 at 8 mg/L
  MIC: 16 µg/mL
PA-030, blaIMP; 5 at 16 mg/L
  MIC: 8 µg/mL
PA-030, blaIMP; 5 at 32 mg/L
  MIC: 8 µg/mL
PA-030, blaIMP; 5 at 64 mg/L
  MIC: 4 µg/mL
PA-028, blaNDM; PA-028
  Activity (FICI class): S (S (Synergy, FICI ≤ 0.5))
  Concentrations of ATM and 5 at lowest FICI (ATM/5): 2/2
  Lowest FICI (ATM/5): 0.25
PA-028, blaNDM; PA-028, ATM/5
  Susceptibility to ATM: S (S (sensitive, MIC ≤ 8 mg/L))
PA-028, blaNDM; PA-028, lowest-FICI combination
  FD (fold decrease in MIC of ATM with 5): 4
PA-028, blaNDM; 5 at 1 mg/L
  MIC: 4 µg/mL
PA-028, blaNDM; 5 at 2 mg/L
  MIC: 2 µg/mL
PA-028, blaNDM; 5 at 4 mg/L
  MIC: 2 µg/mL
PA-028, blaNDM; 5 at 8 mg/L
  MIC: 2 µg/mL
PA-028, blaNDM; 5 at 16 mg/L
  MIC: 1 µg/mL
PA-028, blaNDM; 5 at 32 mg/L
  MIC: 1 µg/mL
PA-028, blaNDM; 5 at 64 mg/L
  MIC: 1 µg/mL
PA-038, blaNDM
  Activity (FICI class): S (S (Synergy, FICI ≤ 0.5))
  Concentrations of ATM and 5 at lowest FICI (ATM/5): 4/8
